Earlier results in US20180185484A1, “PREPARATION AND USE OF PLATELET PRODUCTS” (Cerus Corporation, priority 2015, published 2018).

System: T lymphocytes
Conditions: treated platelet preparations, after photoactivation; Grass et al., 1998

In the case of `Cc1oc2c(C)c3oc(=O)cc(C)c3cc2c1COCCN` [amotosalen, 4′-(4-amino-2-oxa)butyl-4,5′,8-trimethylpsoralen], the “reduction of viable T lymphocytes” value is listed as “greater than 5 logs”.
